Experimental findings from PubChem BioAssay AID2305 (GlaxoSmithKline (GSK), 2010) are described below.

The assay has as its system P. falciparum 3D7 growth, pLDH absorbance. The assay is described as follows: blood-stage malaria parasite growth potency – strain 3D7, dose response (AID 2305).
As usually defined, the IC50 is the point on the concentration scale where inhibition reaches its midpoint. For the compound `CCOc1ccccc1C(=O)Nc1cccc(-c2nc3ncccn3c2C)c1`, the IC50 was found to be 850 nM.
`CCN(CCN(C)C)Cc1ccc(-c2ccc(NS(=O)(=O)c3cccc(Cl)c3)cc2)cc1` had an IC50 of 520 nM.
In turn, `COc1ccc(C2C(C(=O)OC3CCCC3)=C(C)NC3=C2C(=O)CCC3)cc1Br` (configuration not stated) registered a 50% inhibitory concentration (IC50) of 590 nM.
`COCCNCc1cccc(-c2cccc(CN(C(=O)Nc3ccccc3)C3CCN(Cc4ccccc4)CC3)c2)c1` displayed an IC50 of 130 nM.
The value for `Cc1ccccc1C1CCN(C2CCC(NC(=O)/C=C/c3cccc(Cl)c3Cl)CC2)CC1` (configuration not stated) was 1030 nM; that for `COc1cccc2c(Nc3ccccc3C)nc(Nc3ccccc3C)nc12` was 680 nM; that for `O=C(Nc1ccc2c(c1)CCN2C1CCN(Cc2ccc(O)cc2)C1)c1ccco1` (configuration not stated) was 900 nM.
Under `COc1ccc2ncn(-c3ccc(C(N)=O)c(OCc4ccccc4C(F)(F)F)c3)c2c1` stands 540 nM.
In the case of `COc1ccc2nccc(N(C)CC3(O)CCC(NCc4ccc5c(n4)NC(=O)CS5)CC3)c2n1` (configuration not stated), the IC50 stood at 700 nM.
For `CS(=O)(=O)c1ccc(CCNCc2ccc(-c3cccc(-c4nc5ccccc5[nH]4)c3)cc2)cc1`, the IC50 came to 190 nM.
Regarding `C[C@H](Cc1ccc(OCCNC[C@H](O)c2cccc(Cl)c2)cc1)NC[C@H](O)c1ccc(Cl)c(Cl)c1`, the IC50 amounted to 960 nM.
The value for `CS(=O)(=O)Cc1ccc(Nc2nccc(N3CCCc4cc(NC(=O)Nc5cccc(C(F)(F)F)c5)ccc43)n2)cc1` was 150 nM; that for `CN1CCCc2ccc(NC(=O)c3cnc(-c4ccccc4)cn3)cc21` was 910 nM; that for `O=C1CSc2ccc(CNC3CCN(CCc4c(F)cnc5ccc(F)cc45)CC3)nc2N1` was 520 nM.
Under `CCN(CCCN1CCCCC1)c1cc(C)nc(Nc2ccc(C)c(Br)c2)n1` stands 250 nM.
With `O=C(Nc1ccc(Oc2cccnc2)cc1)C1CCN(Cc2cc(Cl)ccc2O)CC1`, the IC50 came to 1350 nM.
Under `Cc1c(CN2CCC(N3CCC(C(=O)NC4CC4)CC3)CC2)[nH]c2c(Cl)cccc12` stands 1190 nM.
Turning to `CCCC(C)N(Cc1ccc(C(C)(C)C)cc1)C(=O)c1ccc(OC)cc1` (configuration not stated), the IC50 was found to be 110 nM.
The value for `Cc1ccc(NC(=O)c2c(C)noc2-c2snnc2C)cc1` was 1370 nM; that for `Cc1c(C)n(C2CCCC2)c2ncnc(OC3CCN(CC(=O)NCC4CC4)CC3)c12` was 890 nM.
For the compound `CC[C@H]1CN2CCc3cc(OC)c(OC)cc3[C@@H]2C[C@@H]1C[C@H]1NCCc2cc(OC)c(OC)cc21`, the IC50 was 210 nM.
In turn, `CN(C)CCNc1cc(-c2cccnc2)nc(-c2ccncc2)n1` came in with an IC50 of 600 nM.
In turn, `C=C[C@H]1CN(CCCCCCC)CC[C@H]1CC(O)Cc1ccnc2cc(O)c(OC)cc12` (some centres not stated) came in with an IC50 of 820 nM.
The value for `O=C(Nc1ccc(F)cc1)c1cnc(N2CCN(c3ccncc3)CC2)c(Cl)c1` was 740 nM; that for `CC1CCCC(NC(=O)CCOc2ccccc2)C1` (configuration not stated) was 880 nM.
The value for `Cc1cc(=O)c(-c2ccc(Oc3ccc(OC(F)(F)F)cc3)cc2)c(C)[nH]1` was 360 nM; that for `CN(Cc1ccccc1)C(=O)CCNS(=O)(=O)c1cc(Br)cnc1N` was 1130 nM.
The value for `CCOc1cc(Cc2cnc(N)nc2N)cc(OCC)c1-n1cccc1` was 760 nM; that for `COc1ccc(-c2cncc(-c3ccc(OC)c(OC)c3)n2)cc1OC` was 780 nM; that for `CC(CCNc1c2ccccc2nc2ccccc12)N1CCN(C)CC1` (configuration not stated) was 800 nM.
The compound `CCN(CC)CCN(Cc1ccc(-c2ccc(C(F)(F)F)cc2)cc1)C(=O)Cn1cc(Cc2cnn(C)c2)c(=O)nc1/C=C/c1ccc(F)cc1` yielded an IC50 of 1060 nM.
In turn, `CCCCN1CCN(CCCCNc2c3ccccc3nc3ccccc23)CC1` displayed an IC50 of 170 nM.
The value for `CCCc1ccc(NC(=O)c2ccc(CN3CCCN(Cc4cccc(O)c4)CC3)cc2)cc1` was 400 nM; that for `CC(Nc1nc(Nc2ccc(F)cc2)nc(SCC(N)=O)n1)c1ccccc1` (configuration not stated) was 500 nM; that for `CS(=O)(=O)Nc1ccc2c(C3CCN(CC4CCN(C(=O)/C=C/c5ccc(Cl)c(Cl)c5)CC4)CC3)c[nH]c2c1` was 760 nM.
The value for `COc1cccc(C(=O)NCCOc2ccccc2)c1Oc1ccccc1` was 920 nM.
Under `COc1cc(NC(=O)CCCCCCCCN2CCN(C)CC2)c2ncccc2c1` stands 890 nM; under `O=C(NCc1cccc(F)c1)Nc1cccc(-c2cccc(-c3nc4ccc(C(F)(F)F)cc4[nH]3)c2)c1`, 330 nM.
`CC(C)C(C(=O)Nc1ccc2c(c1)OCO2)c1ccc(Cl)cc1` (configuration not stated) came in with an IC50 of 720 nM.
`Cc1ccc(Nc2nccc(Nc3ccc4c(c3)nc(Nc3cc(C(C)(C)C)on3)n4C)n2)cc1S(C)(=O)=O` had an IC50 of 600 nM.
Under `O=c1cc(NCCCNCc2cccc3c2OC(F)(F)O3)[nH]c2ccccc12` stands 950 nM.
Under `CCC(C)c1ccc(NC(=O)Nc2ccc(Cn3ncc(N4CCCNCC4)c(Cl)c3=O)cc2)cc1` (configuration not stated) stands 1030 nM; under `FC(F)(F)Oc1cccc(CNc2noc(-c3sccc3Br)n2)c1`, 880 nM; under `COc1ccc(-c2cnc(N)c(-c3nc4ccc(Br)cc4[nH]3)c2)cc1`, 1560 nM.
The compound `N#Cc1ccc(NC(=O)Nc2ccc3c(c2)CCN(C2CCC2)CC3)cc1` gave an IC50 of 630 nM.
`O=S(=O)(NCCN1CCCC1)c1ccc(-c2ccc(CNCc3ccsc3)cc2)s1` returned an IC50 of 830 nM.
`Cc1[nH]nc2cc(F)c(-c3cc(OC[C@@H](N)Cc4ccccc4)cnc3-c3ccoc3)cc12` yielded an IC50 of 1040 nM.
Consider `CC(C)(C)c1nn(-c2ccc(Cl)cc2)c2[nH]c(=O)c(CNC3CCCC3)cc12`, for which the IC50 worked out at 230 nM.
`COc1cccc(-c2ccc3c(-c4cccc(NC(C)=O)c4)cnc(N)c3c2)c1`: the IC50 turned out to be 110 nM.
On to `O=S(=O)(NCCN1CCCC1)c1ccc(-c2ccc(CNCc3ccsc3)cc2)cc1`, for which the IC50 worked out at 850 nM.
Under `C=CCn1c(SCC(=O)Nc2cc(Cl)ccc2Cl)nc2sc(C)cc2c1=O` stands 70 nM; under `CCC(=O)N1CCc2cc(Br)cc(S(=O)(=O)N3CC(C)CC(C)C3)c21` (configuration not stated), 930 nM.
Turning to `Cc1cccc2[nH]c(-c3ccc(-c4cccc(CNCCN(C)C)c4)cc3)nc12`, the IC50 came out at 680 nM.
Regarding `Cc1[nH]c2cc(Cl)ccc2c1C1=CCN(CCN2CCOc3c(Br)cccc3C2=O)CC1`, the IC50 came out at 870 nM.
Under `COc1ccc2nccc(N3CCC(NCCNCc4cc5c(cn4)OCCO5)C3)c2n1` (configuration not stated) stands 580 nM; under `O=C(NC1CCCCC1)N(Cc1ccc(-c2cccc(CNCc3ccc4c(c3)OCO4)c2)cc1)C1CCN(Cc2ccccc2)CC1`, 690 nM; under `O=c1[nH]c2c(cc1CNC1CCCCC1)c(-c1cccc(F)c1)nn2-c1ccccc1`, 950 nM.
Under `CC(C)[C@@H](C(=O)NCc1cccc(C(F)(F)F)c1)N1C(=O)CCC1C(=O)Nc1ccc([N+](=O)[O-])cc1` (some centres not stated) stands 930 nM.
The value for `Cc1cc(NN=Cc2ccccc2Cl)c2cccc(C)c2n1` was 710 nM; that for `CC(=O)Nc1ccc2[nH]cc(C3CCN(CC4CCN(C(=O)/C=C/c5ccc(Cl)c(Cl)c5)CC4)CC3)c2c1` was 720 nM.
`CCOC(C(=O)OCC1CCCN(C)C1)(c1ccccc1)c1ccccc1` (configuration not stated) displayed an IC50 of 870 nM.
Under `CC(C)(C)c1ccc(CN2CCCCC(NC(=O)c3cc(-c4cccc(F)c4)cs3)C2)cc1` (configuration not stated) stands 780 nM; under `COc1ccc(Cc2cccc(C(C(=O)NCc3cc(Cl)cc(Cl)c3)N3CCN(C)CC3)c2)cc1` (configuration not stated), 690 nM.
Under `CCCCCCP(=O)(COc1ccc(CCN(CC(O)COc2cccc3[nH]c(C(N)=O)cc23)CC(O)COc2cccc3[nH]c(C(N)=O)cc23)cc1)OCCCC` (configuration not stated) stands 720 nM.
`O=C(NCCCCCN1CCC(c2c[nH]c3ccccc23)CC1)c1ccc(-c2ccccc2)nc1` returned an IC50 of 1020 nM.
Under `Cc1ccc(Nc2nc(NN=Cc3cccc(O)c3)nc(Nc3ccc([N+](=O)[O-])cc3)n2)cc1C` stands 740 nM.
Turning to `O=C(c1ccccc1N=Nc1c(-c2ccccc2)[nH]n(-c2ccccc2)c1=O)N1CCOCC1`, the IC50 was 350 nM.
Under `CS(=O)(=O)c1ccc(-c2nc(NCC3CCCCC3)cc(C(F)(F)F)n2)cc1` stands 670 nM.
On to `COc1cccc(C(=O)Nc2ccc(Nc3nc(C)cc(N(C)C)n3)cc2)c1OC`, for which the IC50 was 1020 nM.
`O=S(=O)(Nc1cccc(CCN2CCC(N3CCCCC3)CC2)c1)c1cccc(C(F)(F)F)c1`: the IC50 is 980 nM.
On to `COc1ccc(-c2nonc2NC(=O)c2cccc(C)c2)cc1OC`, for which the IC50 came to 810 nM.
On to `Cc1cccc2[nH]c(-c3cccc(-c4cccc(CNCc5ccccc5)c4)c3)nc12`, for which the IC50 was 390 nM.
Under `CS(=O)(=O)NCCCNCc1cccc(-c2cccc(-c3nc4ccc(C(F)(F)F)cc4[nH]3)c2)c1` stands 470 nM; under `O=C(Nc1cccc(OC2CCN(Cc3ccsc3)CC2)c1)c1ccc(C(F)(F)F)cc1`, 770 nM; under `Cc1cc(NC(=O)c2cccs2)ccc1OC1CCN(Cc2ccc(F)cc2)C1` (configuration not stated), 670 nM.
On to `CC(C)N1CCC(N(Cc2ccc(-c3ccc(C(F)(F)F)cc3)cc2)C(=O)Cn2c(CCc3cccc(F)c3F)nc(=O)c3cccnc32)CC1`, for which the half-inhibitory concentration (IC50) was 640 nM.
Compound `CCOC(=O)c1ccc(NC(=O)N(Cc2ccc(-c3ccc(CN4CCNCC4)cc3)cc2)C2CCN(Cc3ccccc3)CC2)cc1` showed an IC50 of 800 nM.
Take `c1cncc(CNc2ncc(-c3ccsc3)c(-c3nccs3)n2)c1`: the IC50 turned out to be 1380 nM.
Under `C[C@@H](C(=O)N1CCOCC1)N1CC[C@H](NS(=O)(=O)c2ccc3ccnc(N)c3c2)C1=O` stands 1500 nM; under `Cc1cc(NC(=O)[C@H](CC2CCCCC2)Nc2ccc(C#N)c3ccccc23)ccc1F`, 680 nM; under `Cc1cc(N)c2cc(NC(=O)/C=C/c3ccccc3)ccc2n1`, 760 nM.
The value for `COc1ccccc1CC1CCCN(C2CCC(NC(=O)c3cc4ccccc4[nH]3)CC2)C1` (configuration not stated) was 840 nM; that for `CCn1c2ccccc2c2cc(C=NNc3cc(C)nc4ccccc34)ccc21` was 310 nM; that for `Cc1[nH]c(C)c(-c2ccc(OCCCc3ccccn3)cc2)c(=O)c1Br` was 210 nM.
`CCCCCc1cc(OC(=O)CCCN(CC)CC)c2c(c1)OC(C)(C)C=C2C1=CCN(Cc2ccc3ccccc3c2)CC1` yielded an IC50 of 160 nM.
`Cc1cc(F)ccc1[C@H]1CNCCN1C(=O)N(C)[C@@H](C)c1cc(C(F)(F)F)cc(C(F)(F)F)c1` had an IC50 of 230 nM.
Compound `O=C(NC1CCN(CC2(c3ccccc3)CCCC2)CC1)c1[nH]ncc1Cl` gave an IC50 of 1040 nM.
